Measured values published in US5160483A, “Fragment of TNF-α for promoting wound healing” (The University of Tennessee Research Corporation, priority 1991, dated 1992).
Like-named read-outs stand apart in the source and are kept apart here.

Experiments:
fibroblasts [1] = assay: Chemotaxis of fibroblasts in chemotaxis chambers, fragment in lower compartment (FIG. 1); assay type: cell-based; conditions: fragment in PBS in lower compartment of chemotaxis chambers
Description: (§1) Solutions of varying concentrations of the fragment of TNF-α comprising amino acids 31 through 68 SEQ ID No.: 1 in phosphate buffered saline (PBS) were added to the lower compartment of chemotaxis chambers. The number of fibroblasts migrating to the lower compartment was counted. The response curve is bell-shaped, with a maximum at 100 nM. An analysis of the effects of varying concentration gradients of the protein fragment (a Zigmond-Hirsch checkerboard analysis) was performed by adding different concentrations of the fragment to the upper and/or lower compartments of a chemotaxis chamber. The number of fibroblasts migrating to the lower surface of each filter was counted.

fibroblasts [2] = assay: Zigmond-Hirsch checkerboard analysis of fibroblast migration in chemotaxis chamber; assay type: cell-based
Description: as §1
The fibroblasts migrate from the upper chamber to the lower chamber since there is very little of the fragment in the upper chamber and there is quite a large concentration of the fragment in the lower chamber. This simulates the condition at a wound site where there has been an application of the fragment to the wound. The concentration of the fragment in the surrounding tissue will be quite low compared to the concentration at the wound site. Therefore, the fibroblasts will migrate from the area of low concentration of the fragment to the area of high concentration.

[3] = tested on: fibroblasts and monocytes; assay: Intradermal injection in guinea pigs; assay type: in vivo
From the text: The composition accomplishes this without the problems attendant on the previously developed materials. The fragment includes amino acids 31 through 68 SEQ ID No.: 1 of TNF-α which has the sequence: [drawing 1]

[4] = known property of the complete protein; cited from earlier work

fragment of TNF-α comprising amino acids 31 through 68 SEQ ID No.: 1: 38-residue synthetic polypeptide, amino acids 31 through 68 of TNF-α (SEQ ID No.: 1), about 3,800 Da (RRANALLANGVELRDNQLVVPSEGLYLIYSQVLFKGQG; Tumor necrosis factor, soluble form; UniProt P01375 107-144, looked up, fragment)
concentration at the maximum of the bell-shaped fibroblast migration response curve (fibroblasts [1]): 100 nM | cytotoxicity (Cytotoxicity): without any showing of cytotoxicity | number of fibroblasts migrating to the lower surface of each filter (fibroblasts [2]; upper compartment 0 nM, lower compartment 21 nM): 31 ± 4 | number of fibroblasts migrating to the lower surface of each filter (fibroblasts [2]; upper compartment 0 nM, lower compartment 41 nM): 57 ± 3 | number of fibroblasts migrating to the lower surface of each filter (fibroblasts [2]; upper compartment 0 nM, lower compartment 164 nM): 73 ± 4 | number of fibroblasts migrating to the lower surface of each filter (fibroblasts [2]; upper compartment 0 nM, lower compartment 329 nM): 86 ± 13 | number of fibroblasts migrating to the lower surface of each filter (fibroblasts [2]; upper compartment 21 nM, lower compartment 0 nM): 20 ± 6 | number of fibroblasts migrating to the lower surface of each filter (fibroblasts [2]; upper compartment 21 nM, lower compartment 21 nM): 9 ± 1 | number of fibroblasts migrating to the lower surface of each filter (fibroblasts [2]; upper compartment 21 nM, lower compartment 41 nM): 49 ± 7 | number of fibroblasts migrating to the lower surface of each filter (fibroblasts [2]; upper compartment 21 nM, lower compartment 164 nM): 46 ± 2 | number of fibroblasts migrating to the lower surface of each filter (fibroblasts [2]; upper compartment 21 nM, lower compartment 329 nM): 67 ± 2 | number of fibroblasts migrating to the lower surface of each filter (fibroblasts [2]; upper compartment 41 nM, lower compartment 0 nM): 31 ± 2 | number of fibroblasts migrating to the lower surface of each filter (fibroblasts [2]; upper compartment 41 nM, lower compartment 21 nM): 28 ± 5 | number of fibroblasts migrating to the lower surface of each filter (fibroblasts [2]; upper compartment 41 nM, lower compartment 41 nM): 26 ± 4 | number of fibroblasts migrating to the lower surface of each filter (fibroblasts [2]; upper compartment 41 nM, lower compartment 164 nM): 47 ± 5 | number of fibroblasts migrating to the lower surface of each filter (fibroblasts [2]; upper compartment 41 nM, lower compartment 329 nM): 57 ± 6 | number of fibroblasts migrating to the lower surface of each filter (fibroblasts [2]; upper compartment 164 nM, lower compartment 0 nM): 14 ± 2 | number of fibroblasts migrating to the lower surface of each filter (fibroblasts [2]; upper compartment 164 nM, lower compartment 21 nM): 11 ± 1 | number of fibroblasts migrating to the lower surface of each filter (fibroblasts [2]; upper compartment 164 nM, lower compartment 41 nM): 16 ± 3 | number of fibroblasts migrating to the lower surface of each filter (fibroblasts [2]; upper compartment 164 nM, lower compartment 164 nM): 22 ± 4 | number of fibroblasts migrating to the lower surface of each filter (fibroblasts [2]; upper compartment 164 nM, lower compartment 329 nM): 43 ± 3 | number of fibroblasts migrating to the lower surface of each filter (fibroblasts [2]; upper compartment 329 nM, lower compartment 0 nM): 16 ± 3 | number of fibroblasts migrating to the lower surface of each filter (fibroblasts [2]; upper compartment 329 nM, lower compartment 21 nM): 10 ± 1 | number of fibroblasts migrating to the lower surface of each filter (fibroblasts [2]; upper compartment 329 nM, lower compartment 41 nM): 9 ± 1 | number of fibroblasts migrating to the lower surface of each filter (fibroblasts [2]; upper compartment 329 nM, lower compartment 164 nM): 12 ± 2 | number of fibroblasts migrating to the lower surface of each filter (fibroblasts [2]; upper compartment 329 nM, lower compartment 329 nM): 8 ± 1 | type of fibroblast migration induced (checkerboard analysis) (fibroblasts [2]; varying concentration gradients, Table I): induced mostly chemotactic migration of fibroblasts | amount of connective tissue at the injection site [3]: increase in the amount of connective tissue at the injection site | migration of fibroblasts and monocytes into the area of the wound [3]: increased migration of fibroblasts and monocytes into the area of the wound

TNF-α
cytotoxicity [4]: known to be a cytotoxin
